Laboratory results: the supplement of paper PMC10307832

Legend:
Assay in all cases: relative viability (nuclei count vs DMSO), 5 days (fraction); higher = more cells survive
UMC-11 = tested on: UMC-11
Summary of the method: (§1)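 Values are medians from duplicate plates. Each reflects relative viability, defined as the nuclei count of treated wells over that of vehicle wells. Lung cancer cell lines in 1536-well plates were pin-tool dosed one day after seeding with one drug alone or with a fixed anchor-drug dose plus five library-drug doses (not always all listed) in √10 steps, then fixed, stained and imaged at 4× after 5 days.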

SK-LU-1 = tested on: SK-LU-1
Summary of the method: as §1

NCI-H358 = tested on: NCI-H358
Summary of the method: as §1

A-427 = tested on: A-427
Summary of the method: as §1

LU99A = tested on: LU99A
Summary of the method: as §1

NCI-H460 = tested on: NCI-H460
Summary of the method: as §1

COR-L 105 = tested on: COR-L 105
Summary of the method: as §1

NCI-H1915 = tested on: NCI-H1915
Summary of the method: as §1

EPLC-272H = tested on: EPLC-272H
Summary of the method: as §1

SW 900 = tested on: SW 900
Summary of the method: as §1

HOP-62 = tested on: HOP-62
Summary of the method: as §1

NCI-H1666 = tested on: NCI-H1666
Summary of the method: as §1

HCC-78 = tested on: HCC-78
Summary of the method: as §1

NCI-H1944 = tested on: NCI-H1944
Summary of the method: as §1

NCI-H2009 = tested on: NCI-H2009
Summary of the method: as §1

HCC-366 = tested on: HCC-366
Summary of the method: as §1

LC-2-ad = tested on: LC-2-ad
Summary of the method: as §1

LXF-289 = tested on: LXF-289
Summary of the method: as §1

NCI-H2085 = tested on: NCI-H2085
Summary of the method: as §1

NCI-H1793 = tested on: NCI-H1793
Summary of the method: as §1

NCI-H2170 = tested on: NCI-H2170
Summary of the method: as §1

NCI-H1792 = tested on: NCI-H1792
Summary of the method: as §1

## COc1nc(C)cnc1NS(=O)(=O)c1cccnc1-c1ccc(-c2nnco2)cc1 [Zibotentan] + COc1cccc2cc(-c3nc([C@H]4CC[C@H](C(=O)O)CC4)n4ncnc(N)c34)[nH]c12 [OSI-027] (partner 0.5 µM)
UMC-11; first compound 0.08 µM
  relative viability: 0.562
UMC-11; first compound 0.253 µM
  relative viability: 0.462
UMC-11; first compound 0.8 µM
  relative viability: 0.467
UMC-11; first compound 2.53 µM
  relative viability: 0.514
SK-LU-1; first compound 0.08 µM
  relative viability: 0.38
SK-LU-1; first compound 0.253 µM
  relative viability: 0.31
SK-LU-1; first compound 0.8 µM
  relative viability: 0.344
SK-LU-1; first compound 2.53 µM
  relative viability: 0.325
NCI-H358; first compound 0.08 µM
  relative viability: 0.833
NCI-H358; first compound 0.253 µM
  relative viability: 0.531
NCI-H358; first compound 0.8 µM
  relative viability: 0.725
NCI-H358; first compound 2.53 µM
  relative viability: 0.824
A-427; first compound 0.08 µM
  relative viability: 0.54
A-427; first compound 0.253 µM
  relative viability: 0.425
A-427; first compound 0.8 µM
  relative viability: 0.501
A-427; first compound 2.53 µM
  relative viability: 0.579
LU99A; first compound 0.08 µM
  relative viability: 0.32
LU99A; first compound 0.253 µM
  relative viability: 0.302
LU99A; first compound 0.8 µM
  relative viability: 0.274
LU99A; first compound 2.53 µM
  relative viability: 0.338
NCI-H460; first compound 0.08 µM
  relative viability: 0.665
NCI-H460; first compound 0.253 µM
  relative viability: 0.408
NCI-H460; first compound 0.8 µM
  relative viability: 0.593
NCI-H460; first compound 2.53 µM
  relative viability: 0.66
COR-L 105; first compound 0.08 µM
  relative viability: 0.822
COR-L 105; first compound 0.253 µM
  relative viability: 0.618
COR-L 105; first compound 0.8 µM
  relative viability: 0.941
COR-L 105; first compound 2.53 µM
  relative viability: 0.909
NCI-H1915; first compound 0.08 µM
  relative viability: 0.637
NCI-H1915; first compound 0.253 µM
  relative viability: 0.627
NCI-H1915; first compound 0.8 µM
  relative viability: 0.603
NCI-H1915; first compound 2.53 µM
  relative viability: 0.649
EPLC-272H; first compound 0.08 µM
  relative viability: 0.328
EPLC-272H; first compound 0.253 µM
  relative viability: 0.287
EPLC-272H; first compound 0.8 µM
  relative viability: 0.269
EPLC-272H; first compound 2.53 µM
  relative viability: 0.301
SW 900; first compound 0.08 µM
  relative viability: 0.623
SW 900; first compound 0.253 µM
  relative viability: 0.607
SW 900; first compound 0.8 µM
  relative viability: 0.528
SW 900; first compound 2.53 µM
  relative viability: 0.496
HOP-62; first compound 0.08 µM
  relative viability: 0.903
HOP-62; first compound 0.253 µM
  relative viability: 0.871
HOP-62; first compound 0.8 µM
  relative viability: 0.878
HOP-62; first compound 2.53 µM
  relative viability: 0.931
NCI-H1666; first compound 0.08 µM
  relative viability: 0.929
NCI-H1666; first compound 0.253 µM
  relative viability: 0.751
NCI-H1666; first compound 0.8 µM
  relative viability: 0.814
NCI-H1666; first compound 2.53 µM
  relative viability: 0.877
HCC-78; first compound 0.08 µM
  relative viability: 0.358
HCC-78; first compound 0.253 µM
  relative viability: 0.332
HCC-78; first compound 0.8 µM
  relative viability: 0.356
HCC-78; first compound 2.53 µM
  relative viability: 0.323
NCI-H1944; first compound 0.08 µM
  relative viability: 0.439
NCI-H1944; first compound 0.253 µM
  relative viability: 0.393
NCI-H1944; first compound 0.8 µM
  relative viability: 0.427
NCI-H1944; first compound 2.53 µM
  relative viability: 0.465
NCI-H2009; first compound 0.08 µM
  relative viability: 0.677
NCI-H2009; first compound 0.253 µM
  relative viability: 0.632
NCI-H2009; first compound 0.8 µM
  relative viability: 0.711
NCI-H2009; first compound 2.53 µM
  relative viability: 0.754
HCC-366; first compound 0.08 µM
  relative viability: 0.922
HCC-366; first compound 0.253 µM
  relative viability: 0.884
HCC-366; first compound 0.8 µM
  relative viability: 0.389
HCC-366; first compound 2.53 µM
  relative viability: 1.1
LC-2-ad; first compound 0.08 µM
  relative viability: 0.817
LC-2-ad; first compound 0.8 µM
  relative viability: 1.13
LC-2-ad; first compound 2.53 µM
  relative viability: 0.79
LXF-289; first compound 0.08 µM
  relative viability: 0.82
LXF-289; first compound 0.253 µM
  relative viability: 0.794
LXF-289; first compound 0.8 µM
  relative viability: 0.871
LXF-289; first compound 2.53 µM
  relative viability: 0.839
NCI-H2085; first compound 0.08 µM
  relative viability: 0.78
NCI-H2085; first compound 0.253 µM
  relative viability: 0.727
NCI-H2085; first compound 0.8 µM
  relative viability: 0.442
NCI-H2085; first compound 2.53 µM
  relative viability: 0.832
NCI-H1793; first compound 0.08 µM
  relative viability: 0.351
NCI-H1793; first compound 0.253 µM
  relative viability: 0.284
NCI-H1793; first compound 0.8 µM
  relative viability: 0.224
NCI-H1793; first compound 2.53 µM
  relative viability: 0.254
NCI-H2170; first compound 0.08 µM
  relative viability: 0.702
NCI-H2170; first compound 0.253 µM
  relative viability: 0.761
NCI-H2170; first compound 0.8 µM
  relative viability: 0.64
NCI-H2170; first compound 2.53 µM
  relative viability: 0.791
NCI-H1792; first compound 0.08 µM
  relative viability: 0.803
NCI-H1792; first compound 0.253 µM
  relative viability: 0.583
NCI-H1792; first compound 0.8 µM
  relative viability: 0.563
NCI-H1792; first compound 2.53 µM
  relative viability: 0.751
